Reference: patent US20230143604A1, “QW DOSING OF GIP RECEPTOR AGONIST PEPTIDE COMPOUNDS AND USES THEREOF” (TAKEDA PHARMACEUTICAL COMPANY LIMITED, priority 2020, published 2023)
Starred links: 1 amine or outer side, 2 acyl side, 3 side chain; linkers in the order of their positions; H or OH if unused. Non-standard residues stand in square brackets, D forms with d. Residues, ends and D or L forms follow the SMILES beside them. Groups on a side chain read outwards from the residue. *: point of attachment. C18 diacid = O=C(O)CCCCCCCCCCCCCCCCC(=O)*; C17 diacid = O=C(O)CCCCCCCCCCCCCCCC(=O)*; γGlu = O=C(O)[C@H](CCC(=O)[*:2])N[*:1]; NMeY = CN[C@@H](Cc1ccc(O)cc1)C(=O)O; AEEA = NCCOCCOCC(=O)O; Aib = CC(C)(N)C(=O)O

Test: physchem
Description: Solubility of the GIPR peptides may be determined by dissolution in a phosphate buffer followed by quantitation using liquid chromatography, for example, High Performance Liquid Chromatogry (HPLC). An illustrative method is provided. For determination of the solubility of the GIPr agonist peptides, 3 mg of peptides are weighted out in a small glass vial. 100 μL of 200 mM Phosphate buffer pH 7.4 are added and the vial is sonicated/votexed as necessary for a maximum of 1 min. […] If insoluble material is observed in the tube the addition of 100 μL of buffer and mixing is repeated until complete dissolution.
3 mg of peptides are weighted out in a small glass vial. 100 uL of 200 mM Phosphate buffer pH 7.4 are added and the vial is sonicated/votexed as necessary for a maximum of 1 min. […] If insoluble material is observed in the tube the addition of 100 uL of buffer and mixing is repeated until complete dissolution.

Question: With `CC[C@H](C)[C@H](NC(=O)[C@H](CO)NC(=O)[C@H](Cc1ccc(O)cc1)NC(=O)[C@H](CC(=O)O)NC(=O)[C@H](CO)NC(=O)[C@@H](NC(=O)[C@H](Cc1ccccc1)NC(=O)[C@@H](NC(=O)CNC(=O)[C@H](CCC(=O)O)NC(=O)C(C)(C)NC(=O)[C@H](Cc1ccc(O)cc1)NC)[C@@H](C)O)[C@@H](C)CC)C(=O)N[C@@H](C)C(=O)N[C@@H](CC(C)C)C(=O)N[C@@H](CC(=O)O)C(=O)N[C@@H](CCCNC(=N)N)C(=O)N[C@H](C(=O)N[C@@H](Cc1c[nH]cn1)C(=O)N[C@@H](CCC(N)=O)C(=O)N[C@@H](CCC(N)=O)C(=O)N[C@@H](CC(N)=O)C(=O)N[C@@H](Cc1ccccc1)C(=O)N[C@H](C(=O)N[C@@H](CC(N)=O)C(=O)N[C@@H](Cc1c[nH]c2ccccc12)C(=O)N[C@@H](CC(C)C)C(=O)N[C@@H](CC(C)C)C(=O)N[C@@H](C)C(=O)N[C@@H](CCC(N)=O)C(=O)N[C@@H](CCCCNC(=O)COCCOCCNC(=O)COCCOCCNC(=O)CC[C@H](NC(=O)CCCCCCCCCCCCCCCCC(=O)O)C(=O)O)C(N)=O)C(C)C)[C@@H](C)CC` [Compound 5] (H-[NMeY][Aib]EGTFISDYSIALDRIHQQNFVNWLLAQK([AEEA-AEEA-γGlu-C18 diacid])-NH2) as the compound, how does the solubility (pH 7.4) read?
Answer: Its solubility is no less than 15 mg/mL.

Question: What about the solubility (pH 7.4, aqueous buffer) of the same compound?
Answer: The solubility was no less than 27 mg/mL.

Question: Which solubility (pH 7.4, aqueous buffer) does the source give for `CC[C@H](C)[C@H](NC(=O)[C@H](CO)NC(=O)[C@H](Cc1ccc(O)cc1)NC(=O)[C@H](CC(=O)O)NC(=O)[C@H](CO)NC(=O)[C@@H](NC(=O)[C@H](Cc1ccccc1)NC(=O)[C@@H](NC(=O)CNC(=O)[C@H](CCC(=O)O)NC(=O)C(C)(C)NC(=O)[C@H](Cc1ccc(O)cc1)NC)[C@@H](C)O)[C@@H](C)CC)C(=O)N[C@@H](C)C(=O)N[C@@H](CCCCNC(=O)COCCOCCNC(=O)COCCOCCNC(=O)CC[C@H](NC(=O)CCCCCCCCCCCCCCCCC(=O)O)C(=O)O)C(=O)N[C@@H](CC(=O)O)C(=O)N[C@@H](CCCNC(=N)N)C(=O)NC(C)(C)C(=O)N[C@@H](C)C(=O)N[C@@H](CCC(N)=O)C(=O)NC(C)(C)C(=O)N[C@@H](CC(N)=O)C(=O)N[C@@H](Cc1ccccc1)C(=O)N[C@H](C(=O)N[C@@H](CC(N)=O)C(=O)N[C@@H](Cc1c[nH]c2ccccc12)C(=O)N[C@@H](CC(C)C)C(=O)N[C@@H](CC(C)C)C(=O)N[C@@H](C)C(=O)N[C@@H](CCC(N)=O)C(=O)N[C@@H](CCCCN)C(N)=O)C(C)C` [Compound 6] (H-[NMeY][Aib]EGTFISDYSIAK([AEEA-AEEA-γGlu-C18 diacid])DR[Aib]AQ[Aib]NFVNWLLAQK-NH2) here?
Answer: The solubility was no less than 15 mg/mL.

Question: Which results are given for `CC[C@H](C)[C@H](NC(=O)[C@H](CO)NC(=O)[C@H](Cc1ccc(O)cc1)NC(=O)[C@H](CC(=O)O)NC(=O)[C@H](CO)NC(=O)[C@@H](NC(=O)[C@H](Cc1ccccc1)NC(=O)[C@@H](NC(=O)CNC(=O)[C@H](CCC(=O)O)NC(=O)C(C)(C)NC(=O)[C@H](Cc1ccc(O)cc1)NC)[C@@H](C)O)[C@@H](C)CC)C(=O)N[C@@H](C)C(=O)N[C@@H](CCCCNC(=O)COCCOCCNC(=O)COCCOCCNC(=O)CC[C@H](NC(=O)CC[C@H](NC(=O)CCCCCCCCCCCCCCCC(=O)O)C(=O)O)C(=O)O)C(=O)N[C@@H](CC(=O)O)C(=O)N[C@@H](CCCNC(=N)N)C(=O)NC(C)(C)C(=O)N[C@@H](C)C(=O)N[C@@H](CCC(N)=O)C(=O)NC(C)(C)C(=O)N[C@@H](CC(N)=O)C(=O)N[C@@H](Cc1ccccc1)C(=O)N[C@H](C(=O)N[C@@H](CC(N)=O)C(=O)N[C@@H](Cc1c[nH]c2ccccc12)C(=O)N[C@@H](CC(C)C)C(=O)N[C@@H](CC(C)C)C(=O)N[C@@H](C)C(=O)N[C@@H](CCC(N)=O)C(=O)N[C@@H](CCCNC(=N)N)C(=O)O)C(C)C` [Compound 7] (H-[NMeY][Aib]EGTFISDYSIAK([AEEA-AEEA-γGlu-γGlu-C17 diacid])DR[Aib]AQ[Aib]NFVNWLLAQR-OH)?
Answer: solubility (pH 7.4): ≥ 15 mg/mL; solubility (pH 7.4, aqueous buffer): ≥ 30 mg/mL

Question: With `CC[C@H](C)[C@H](NC(=O)[C@H](CO)NC(=O)[C@H](Cc1ccc(O)cc1)NC(=O)[C@H](CC(=O)O)NC(=O)[C@H](CO)NC(=O)[C@@H](NC(=O)[C@H](Cc1ccccc1)NC(=O)[C@@H](NC(=O)CNC(=O)[C@H](CCC(=O)O)NC(=O)C(C)(C)NC(=O)[C@H](Cc1ccc(O)cc1)NC)[C@@H](C)O)[C@@H](C)CC)C(=O)N[C@@H](C)C(=O)N[C@@H](CC(C)C)C(=O)N[C@@H](CC(=O)O)C(=O)N[C@@H](CCCNC(=N)N)C(=O)NC(C)(C)C(=O)N[C@@H](C)C(=O)N[C@@H](CCC(N)=O)C(=O)NC(C)(C)C(=O)N[C@@H](CCCCNC(=O)COCCOCCNC(=O)COCCOCCNC(=O)CC[C@H](NC(=O)CC[C@H](NC(=O)CCCCCCCCCCCCCCCC(=O)O)C(=O)O)C(=O)O)C(=O)N[C@@H](Cc1ccccc1)C(=O)N[C@H](C(=O)N[C@@H](CC(N)=O)C(=O)N[C@@H](Cc1c[nH]c2ccccc12)C(=O)N[C@@H](CC(C)C)C(=O)N[C@@H](CC(C)C)C(=O)N[C@@H](C)C(=O)N[C@@H](CCC(N)=O)C(=O)N[C@@H](CCCNC(=N)N)C(=O)O)C(C)C` [Compound 9] (H-[NMeY][Aib]EGTFISDYSIALDR[Aib]AQ[Aib]K([AEEA-AEEA-γGlu-γGlu-C17 diacid])FVNWLLAQR-OH) as the compound, how does the solubility (pH 7.4) read?
Answer: The solubility was no less than 15 mg/mL.

Question: What about the solubility (pH 7.4, aqueous buffer) of the same compound?
Answer: The solubility was no less than 30 mg/mL.

Question: Which solubility (pH 7.4) does the source give for `CC[C@H](C)[C@H](NC(=O)[C@H](CO)NC(=O)[C@H](Cc1ccc(O)cc1)NC(=O)[C@H](CC(=O)O)NC(=O)[C@H](CO)NC(=O)[C@@H](NC(=O)[C@H](Cc1ccccc1)NC(=O)[C@@H](NC(=O)CNC(=O)[C@H](CCC(=O)O)NC(=O)C(C)(C)NC(=O)[C@H](Cc1ccc(O)cc1)NC)[C@@H](C)O)[C@@H](C)CC)C(=O)N[C@@H](C)C(=O)N[C@@H](CCCCNC(=O)COCCOCCNC(=O)COCCOCCNC(=O)CC[C@H](NC(=O)CCCCCCCCCCCCCCCC(=O)O)C(=O)O)C(=O)N[C@@H](CC(=O)O)C(=O)N[C@@H](CCCNC(=N)N)C(=O)NC(C)(C)C(=O)N[C@@H](C)C(=O)N[C@@H](CCC(N)=O)C(=O)NC(C)(C)C(=O)N[C@@H](CC(N)=O)C(=O)N[C@@H](Cc1ccccc1)C(=O)N[C@H](C(=O)N[C@@H](CC(N)=O)C(=O)N[C@@H](Cc1c[nH]c2ccccc12)C(=O)N[C@@H](CC(C)C)C(=O)N[C@@H](CC(C)C)C(=O)N[C@@H](C)C(=O)N[C@@H](CCC(N)=O)C(=O)N[C@@H](CO)C(=O)O)C(C)C` [Compound 10] (H-[NMeY][Aib]EGTFISDYSIAK([AEEA-AEEA-γGlu-C17 diacid])DR[Aib]AQ[Aib]NFVNWLLAQS-OH) here?
Answer: The solubility was no less than 15 mg/mL.

Question: And the solubility (pH 7.4, aqueous buffer)?
Answer: The solubility was no less than 30 mg/mL.
